Consider seven molecules from patent publication US9169502B2, “Method of producing L-lysine using a Corynebacterium glutamicum microorganism” (Paik Kwang Industrial Co., Ltd., priority 2010, dated 2015).

Assay [1] deals with Corynebacterium glutamicum diaminopimelate dehydrogenase (DDH), SEQ ID NO: 6. Particulars: Wehrmann, et al., 1998; read-out: km value towards ammonium; cited from earlier work.
Assay [2] addresses T1, Corynebacterium glutamicum glucose 6-phosphate dehydrogenase (G6PDH, zwf), wild type (Corynebacterium glutamicum, UniProt Q8NQ63).
T1 sequence (Q8NQ63 1-484): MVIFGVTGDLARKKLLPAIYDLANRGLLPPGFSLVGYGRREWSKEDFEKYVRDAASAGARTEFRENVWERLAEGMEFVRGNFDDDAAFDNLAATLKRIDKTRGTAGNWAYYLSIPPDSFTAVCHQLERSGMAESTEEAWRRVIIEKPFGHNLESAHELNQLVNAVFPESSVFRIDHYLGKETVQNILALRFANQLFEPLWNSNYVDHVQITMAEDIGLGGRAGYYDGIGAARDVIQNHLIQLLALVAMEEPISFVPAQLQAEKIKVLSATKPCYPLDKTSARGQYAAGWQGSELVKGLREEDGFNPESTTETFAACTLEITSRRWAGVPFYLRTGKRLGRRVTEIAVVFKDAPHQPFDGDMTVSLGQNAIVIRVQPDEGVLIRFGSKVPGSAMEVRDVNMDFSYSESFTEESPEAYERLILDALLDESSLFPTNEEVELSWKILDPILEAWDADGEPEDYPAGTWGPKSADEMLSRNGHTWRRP
T1 sequence (Q8NQ62 1-319 partner): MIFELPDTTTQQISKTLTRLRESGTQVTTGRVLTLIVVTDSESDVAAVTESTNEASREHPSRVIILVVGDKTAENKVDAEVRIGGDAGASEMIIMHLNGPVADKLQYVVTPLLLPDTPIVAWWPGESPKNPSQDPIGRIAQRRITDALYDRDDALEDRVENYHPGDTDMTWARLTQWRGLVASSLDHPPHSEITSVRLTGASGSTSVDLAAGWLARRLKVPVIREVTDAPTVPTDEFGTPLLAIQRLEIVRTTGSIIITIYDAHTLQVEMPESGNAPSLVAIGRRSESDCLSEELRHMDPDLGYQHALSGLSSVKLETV
The assay can be described thus: Kinetic characterization of wild type G6P dehydrogenase (Michaelis-Menten constants and inhibition by metabolites). Format: biochemical. Particulars: relative to the activity without addition (100%). How it is done:
(§1) In the exponential growth phase, cells were harvested by centrifugation (5 min, 9800×g, Biofuge stratos, Heraeus, Hanau, Germany), washed once with disruption buffer and finally suspended to 0.25 g CWW per mL. Disruption was performed by sonication (MSE soniprep 150, Sanyo Europe, Munich, Germany) in a ice-water-bath with five 15 sec pulses at 20 microns, or mechanically. To this end, cell suspension was aliquoted in 750 μl amounts in 2 mL Eppendorf tubes containing glass beads. Disruption was performed in a ribolyser (MM301, Retsch, Haan, Germany) at 30 Hz (2×5 min; 5 minutes break in between). Crude cell extracts were obtained by centrifugation for 10 minutes at 13000 rpm (Biofuge fresco, Heraeus, Hanau, Germany) for ribolyser disruption or 2×30 min at 8500 rpm (Biofuge stratos, Heraeus, Hanau, Germany) for disruption by sonication. Protein content was determined by the method of Bradford (Bradford, 1976) with a reagent solution from BioRad (Quick Start Bradford Dye, BioRad, Hercules, USA) and a BSA protein standard.
All measurements were performed as triplicates in a total volume of 1 mL by online monitoring of the change in absorbance in a photospectrometer (Specord 40, Analytik Jena, Jena, Germany or Helios alpha, Thermo Scientific, Waltham, USA). […] Activities are given as specific enzyme activity [U mg^−1] with 1 U=1 μmol min^−1 at 30° C. and calculated from the change in absorbance [A min^−1] and a specific extinction coefficient of ε340=6.22 L mmol^−1 cm^−1 for NAD(P)H. As a general procedure, a master mix without substrate and cell extract was prepared from the stock solutions for the reaction buffer, MgCl2, Co-factors (NADP, NAD, NADH, ADP, TPP, CoA) and coupling enzymes (LDH, G6PDH, PGI, ribose 5-phosphate isomerase (RPI), ribulose 5-phosphate epimerase (RPE), TPI/GDH) and incubated for 10 min at 30° C. […]
Cell disruption was performed in a buffer containing 100 mM Tris/HCl (pH 7.5), 10 mM MgCl2 and 0.75 mM DTT. […] Due to instability of the enzyme, the activity was measured immediately after cell disruption. […]

Assay [3] has as its target T2, Corynebacterium glutamicum glucose 6-phosphate dehydrogenase (G6PDH, zwf), variant A243T (Corynebacterium glutamicum, UniProt Q8NQ63).
T2 construct: grown on glucose minimal medium
The assay can be described thus: Kinetic characterization of A243T-variant of G6P dehydrogenase (Michaelis-Menten constants and inhibition by metabolites). The assay is classed as biochemical. Particulars: for Km: A243T mutant, cell extracts from cells grown on minimal medium with glucose, 30° C., pH 7.8. Here is the method: as §1
All measurements were performed as triplicates in a total volume of 1 mL by online monitoring of the change in absorbance in a photospectrometer (Specord 40, Analytik Jena, Jena, Germany or Helios alpha, Thermo Scientific, Waltham, USA). Negative controls were carried out without substrate or cell extract, respectively. Activities are given as specific enzyme activity [U mg^−1] with 1 U=1 μmol min^−1 at 30° C. and calculated from the change in absorbance [A min^−1] and a specific extinction coefficient of ε340=6.22 L mmol^−1 cm^−1 for NAD(P)H. As a general procedure, a master mix without substrate and cell extract was prepared from the stock solutions for the reaction buffer, MgCl2, Co-factors (NADP, NAD, NADH, ADP, TPP, CoA) and coupling enzymes (LDH, G6PDH, PGI, ribose 5-phosphate isomerase (RPI), ribulose 5-phosphate epimerase (RPE), TPI/GDH) and incubated for 10 min at 30° C. Substrate solution and cell extract were provided in 1.5 mL polystyrene cuvettes (Plastibrand, Wertheim, Germany). The reaction was started by quick addition of the master mix.
Cell disruption was performed in a buffer containing 100 mM Tris/HCl (pH 7.5), 10 mM MgCl2 and 0.75 mM DTT. DTT was prepared freshly as 100 mM stock solution and added to the cell suspension before disruption. Due to instability of the enzyme, the activity was measured immediately after cell disruption. The reaction mix for quantification of the G6P dehydrogenase activity contained 100 mM Tris/HCl (pH 7.8), 200 mM KCl, 1 mM NADP, 10 mM MgCl2, 5 mM G6P and 50 μl cell extract. Michaelis-Menten affinity constants were determined by varying the concentrations of the substrates, G6P or NADP, respectively. To test the influence of effectors on activity, the reaction mix was additionally supplemented with ATP, PEP, FBP or NADPH in varied concentrations.

The Km is the substrate concentration at which the rate is half of its maximum. For orientation: inhibition means the relative decrease from the control value, in per cent.

Molecules are shown by their SMILES. Like-named read-outs stand apart in the source and are kept apart here.

For the molecule `N` [ammonium], the Michaelis constant (Km) in assay [1] is 34000 µM.

Turning to `O=P(O)(O)OC[C@H]1OC(O)(COP(=O)(O)O)[C@@H](O)[C@@H]1O` (stereo partly shown) [FBP, Fructose 1,6-bisphosphate], in assay [2] (5 mM FBP, read-out: Inhibition by metabolites (Remaining Activity), FBP), the inhibition at 5000 µM came to 84.4%. In addition, in assay [3] (5 mM FBP, relative to the activity without addition (100%)), the “Inhibition by metabolites (Remaining Activity), FBP” value amounted to 87.0 ± 0.1%.

As to `O=P(O)(O)OC[C@H]1OC(O)[C@H](O)[C@@H](O)[C@@H]1O` (stereo partly shown) [G6P, Glucose 6-phosphate], the Michaelis constant (Km) in assay [3] (read-out: KM, G6P) was determined as 481 ± 31 µM.

Regarding `C=C(OP(=O)(O)O)C(=O)O` [PEP, Phosphoenolpyruvate], the inhibition at 5000 µM in assay [2] (5 mM PEP, read-out: Inhibition by metabolites (Remaining Activity), PEP) is 62.6 ± 0.1%. Moreover, in assay [3] (5 mM PEP, relative to the activity without addition (100%)), the “Inhibition by metabolites (Remaining Activity), PEP” value came out at 72.5 ± 0.1%.

As to `NC(=O)c1ccc[n+]([C@@H]2O[C@H](COP(=O)(O)OP(=O)(O)OC[C@H]3O[C@@H](n4cnc5c(N)ncnc54)[C@H](OP(=O)(O)O)[C@@H]3O)[C@@H](O)[C@H]2O)c1` [NADP, Nicotinamide adenine dinucleotide phosphate], the Km in assay [3] (read-out: KM, NADP) amounted to 75 ± 4 µM.

As for `NC(=O)C1=CN([C@@H]2O[C@H](COP(=O)(O)OP(=O)(O)OC[C@H]3O[C@@H](n4cnc5c(N)ncnc54)[C@H](OP(=O)(O)O)[C@@H]3O)[C@@H](O)[C@H]2O)C=CC1` [NADPH, Nicotinamide adenine dinucleotide phosphate], the “inhibition by NADPH” value in assay [3] (A243T compared with wild type enzyme, FIG. 10B) is on record as “No significant difference”.

With `Nc1ncnc2c1ncn2[C@@H]1O[C@H](COP(=O)(O)OP(=O)(O)OP(=O)(O)O)[C@@H](O)[C@H]1O` [ATP, Adenosine triphosphate], the percent remaining activity at 5000 µM in assay [2] (5 mM ATP) is 68.8 ± 0.1%. The “Inhibition by metabolites (Remaining Activity), ATP” value in assay [3] (5 mM ATP, relative to the activity without addition (100%)) is listed as 86.0 ± 0.2%.
